# In patent US20240174618A1, “SUBSTITUTED (2-HETEROARYLOXYPHENYL)SULFONATES, SALTS THEREOF AND THEIR USE AS HERBICIDAL AGENTS” (Bayer Aktiengesellschaft, priority 2021, published 2024):
# What was measured:
# Type in all cases: in vivo
# Kochia scoparia (KCHSC) = assay: B. Herbicidal post-emergence efficacy, KCHSC; conditions: for Post-emergence efficacy against KCHSC in %: rated visually after about 3 weeks; for Post-emergence efficacy against KCHSC: 1280 g/ha
# Method in brief: (§1)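 Post-emergence foliar spray, at application rates of 1280 g/ha or less, on one-leaf-stage plants 2–3 weeks post-sowing, using aqueous WP or EC suspensions with 0.5% additive at 600 L/ha. Visual percent efficacy relative to untreated plants scored roughly 3 weeks later in the greenhouse.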
# Poa annua (POAAN) = assay: B. Herbicidal post-emergence efficacy, POAAN
# Method in brief: as §1
# Setaria viridis (SETVI) = assay: C. Herbicidal pre-emergence efficacy, SETVI; conditions: scored after about 3 weeks
# Method in brief: (§2)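 Pre-emergence test: formulated compounds sprayed as aqueous suspension or emulsion with 0.5% additive at 600 l/ha onto soil covering sown seeds, at rates corresponding to 320 g/ha or less. After about 3 weeks in greenhouse, efficacy scored visually as percent versus untreated controls (100% = plants dead).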
# Viola tricolor (VIOTR) [1] = assay: C. Herbicidal pre-emergence efficacy, VIOTR
# Method in brief: as §2
# Viola tricolor (VIOTR) [2] = assay: E. Herbicidal post-emergence efficacy, VIOTR
# Method in brief: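 Greenhouse weeds were treated post-emergence at the one-leaf stage, 2-3 weeks after sowing in sandy loam, with WP or EC formulations sprayed as aqueous suspension/emulsion plus 0.5% additive at 600 l/ha, at 320 g/ha or less. Efficacy was rated visually after about 3 weeks versus untreated controls (100% = dead, 0% = like control).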
# [3] = tested on: Triticum aestivum (TRZAS); assay: F. Post-emergence effect on useful plants, TRZAS; conditions: useful plant
# Method in brief: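 Crop plants grown in sandy loam in the greenhouse were sprayed at the one-leaf stage, 2-3 weeks after sowing, with WP or EC formulations plus 0.5% additive at 600 l/ha water. Damage was scored visually after about 3 weeks against untreated controls (0% = like control, 100% = dead).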
# [4] = tested on: Polygonum convolvulus (POLCO); assay: E. Herbicidal post-emergence efficacy, POLCO
# Experimental: Seeds of monocotyledonous and dicotyledonous weeds and crop plants were placed in sandy loam in plastic or organic planting pots, covered with soil and cultivated in a greenhouse under controlled growth conditions. 2 to 3 weeks after sowing, the test plants were treated at the one-leaf stage. The compounds of the invention, formulated in the form of wettable powders (WP) or as emulsion concentrates (EC), were then sprayed onto the green parts of the plants as aqueous suspension or emulsion with addition of 0.5% additive at a water application rate of 600 l/ha (converted). After the test plants had been kept in the greenhouse under optimum growth conditions for about 3 weeks, the activity of the preparations was rated visually in comparison to untreated controls.
# For example, • 100% efficacy=plants have died, • 0% action=like untreated control plants.
# Tables E1a to E12b below show the effects of selected compounds of the general formula (I) according to table 1 on various harmful plants at an application rate corresponding to 320 g/ha or less, which were obtained by the experimental procedure mentioned above.
# [5] = tested on: Alopecurus myosuroides (ALOMY); assay: C. Herbicidal pre-emergence efficacy, ALOMY; conditions: 320 g/ha, scored after about 3 weeks
# Description: Seeds of monocotyledonous and dicotyledonous weed plants and crop plants were placed in plastic or organic planting pots and covered with soil. The compounds of the invention, formulated in the form of wettable powders (WP) or as emulsion concentrates (EC), were then applied to the surface of the covering soil as aqueous suspension or emulsion with addition of 0.5% additive at a water application rate equivalent to 600 l/ha (converted). After the treatment, the pots were placed in a greenhouse and kept under good growth conditions for the test plants. After about 3 weeks, the efficacy of the preparations was scored visually in comparison with untreated controls as percentages. For example, • 100% efficacy=plants have died, • 0% efficacy=like untreated control plants.
# Tables C1a to C14b below show the effects of selected compounds of the general formula (I) according to table 1 on various harmful plants at an application rate corresponding to 320 g/ha or less, which were obtained by the experimental procedure mentioned above.
Compound,Post-emergence efficacy against TRZAS in % ([3]; application rate 80 g/ha) [%],Post-emergence efficacy against TRZAS in % ([3]; application rate 320 g/ha) [%],Post-emergence efficacy against KCHSC in % (Kochia scoparia (KCHSC); 80 g/ha) [%],Post-emergence efficacy against KCHSC in % (Kochia scoparia (KCHSC); 320 g/ha) [%],Post-emergence efficacy against KCHSC (Kochia scoparia (KCHSC)) [%],Post-emergence efficacy against POAAN (Poa annua (POAAN); 80 g/ha) [%],Post-emergence efficacy against POAAN (Poa annua (POAAN); 320 g/ha) [%],Post-emergence efficacy against POAAN (Poa annua (POAAN); 1280 g/ha) [%],Pre-emergence efficacy against SETVI (Setaria viridis (SETVI); 80 g/ha) [%],Pre-emergence efficacy against SETVI (Setaria viridis (SETVI); 320 g/ha) [%],Pre-emergence efficacy against VIOTR in % (Viola tricolor (VIOTR) [1]; application rate 80 g/ha) [%],Pre-emergence efficacy against VIOTR in % (Viola tricolor (VIOTR) [1]; application rate 320 g/ha) [%],Post-emergence efficacy against VIOTR in % (Viola tricolor (VIOTR) [2]; application rate 80 g/ha) [%],Post-emergence efficacy against VIOTR in % (Viola tricolor (VIOTR) [2]; application rate 320 g/ha) [%],Post-emergence efficacy against POLCO in % ([4]; application rate 320 g/ha) [%],Pre-emergence efficacy against ALOMY [5] [%],Post-emergence efficacy against POLCO in % ([4]; application rate 80 g/ha) [%]
"Cc1cccc(Oc2ncc(Cl)cn2)c1OS(=O)(=O)CCCC(F)(F)F [Example I-28, 2-[(5-Chloropyrimidin-2-yl)oxy]-6-methylphenyl 4,4,4-trifluorobutane-1-sulfonate]",,,,90,100,,90,100,,,,,,,,,
O=S(=O)(CCCCl)Oc1cccc(F)c1Oc1ncc(Cl)cn1 [Example I-13],10,10,,90,100,,,100,,,,,,,80,,
CC(C)CCS(=O)(=O)Oc1ccccc1Oc1ncc(Cl)cn1 [Example I-25],0,0,90,100,100,,90,100,80,100,90,100,,,,80,
CCCCCS(=O)(=O)Oc1ccccc1Oc1ncc(Cl)cn1 [Example I-24],0,0,90,100,100,,90,100,,80,80,80,,80,,,
O=S(=O)(CCCC(F)(F)F)Oc1c(Br)cccc1Oc1ncc(Cl)cn1 [Example I-30],,,100,100,100,,90,100,,,,,,,,,
O=S(=O)(CC1CC1(Cl)Cl)Oc1c(F)cccc1Oc1ncc(Cl)cn1 (stereo not shown) [Example I-57],,,90,90,90,,90,90,,,,,,,,,
O=S(=O)(CCCC(F)(F)C(F)(F)F)Oc1c(F)cccc1Oc1ncc(Cl)cn1 [Example I-68],20,20,100,100,100,,90,100,,100,100,100,100,100,90,90,80
Cc1cccc(Oc2ncc(Cl)cn2)c1OS(=O)(=O)CCC(F)(F)F [Example I-29],,,,100,100,,90,100,,,,,,,,,
Cc1cccc(OS(=O)(=O)CCCCl)c1Oc1ncc(Cl)cn1 [Example I-12],0,0,,,90,,,90,,,,90,,80,100,,

# More lines, main results first:
Post-emergence efficacy against TRZAS in % ([3]; application rate 80 g/ha) [%],Post-emergence efficacy against TRZAS in % ([3]; application rate 320 g/ha) [%],Compound,Post-emergence efficacy against KCHSC in % (Kochia scoparia (KCHSC); 80 g/ha) [%],Post-emergence efficacy against KCHSC in % (Kochia scoparia (KCHSC); 320 g/ha) [%],Post-emergence efficacy against KCHSC (Kochia scoparia (KCHSC)) [%],Post-emergence efficacy against POAAN (Poa annua (POAAN); 80 g/ha) [%],Post-emergence efficacy against POAAN (Poa annua (POAAN); 320 g/ha) [%],Post-emergence efficacy against POAAN (Poa annua (POAAN); 1280 g/ha) [%],Pre-emergence efficacy against SETVI (Setaria viridis (SETVI); 80 g/ha) [%],Pre-emergence efficacy against SETVI (Setaria viridis (SETVI); 320 g/ha) [%],Pre-emergence efficacy against VIOTR in % (Viola tricolor (VIOTR) [1]; application rate 80 g/ha) [%],Pre-emergence efficacy against VIOTR in % (Viola tricolor (VIOTR) [1]; application rate 320 g/ha) [%],Post-emergence efficacy against VIOTR in % (Viola tricolor (VIOTR) [2]; application rate 80 g/ha) [%],Post-emergence efficacy against VIOTR in % (Viola tricolor (VIOTR) [2]; application rate 320 g/ha) [%],Post-emergence efficacy against POLCO in % ([4]; application rate 320 g/ha) [%],Pre-emergence efficacy against ALOMY [5] [%],Post-emergence efficacy against POLCO in % ([4]; application rate 80 g/ha) [%]
0,,Cc1cccc(Oc2ncc(Cl)cn2)c1OS(=O)(=O)CC1CC(F)(F)C1 [Example I-74],90,100,100,90,100,100,100,100,100,100,100,100,,,
0,0,O=S(=O)(CCC(F)(F)F)Oc1c(Br)cccc1Oc1ncc(F)cn1 [Example I-43],90,90,100,,,,100,100,90,100,90,100,90,,
0,20,O=S(=O)(CCC(F)(F)F)Oc1c(Cl)cccc1Oc1ncc(Br)cn1 [Example I-32],100,100,100,90,100,100,90,100,100,100,100,100,100,100,80
0,0,C=CCS(=O)(=O)Oc1ccccc1Oc1ncc(Cl)cn1 [Example I-36],,,90,,,90,,,,,,,,,
